In EPA's ToxValDB 9.5 (doi:10.2903/j.efsa.2012.2522):
Converted amounts (≈) assume the structure as drawn.

Key:
Apis mellifera = settings: acute, mortality
Bibionidae = settings: chronic/long-term; duration: 28 days
Cyprinus carpio = settings: acute; duration: 96 hours; mortality
Daphnia magna = settings: chronic/long-term; duration: 21 days; reproduction
Folsomia candida = settings: chronic/long-term
Pimephales promelas = settings: chronic/long-term; duration: 33 days; growth
[1] = reproduction developmental, body weight

With `Cn1cc(C(=O)O)c(C(F)F)n1` [3-(Difluoromethyl)-1-methyl-1H-pyrazole-4-carboxylic acid] the NOAEL (Oryctolagus sp.; reproduction developmental, no effects) was 250 mg/kg-day.

For `Cn1cc(C(=O)Nc2ccccc2-c2cc(F)c(F)c(F)c2)c(C(F)F)n1` [Fluxapyroxad], the LD50 (Anas platyrhynchos; acute, oral, unspecified, mortality) was > 2000 mg/kg-day, the NOEC (Anas platyrhynchos; reproductive) was 33.6 mg/kg-day and the LC50 (Anas platyrhynchos; short-term, oral, feed, mortality) was > 1720 mg/kg-day. For the same molecule, the LD50 (Apis mellifera; dermal) was > 100 µg/piece, the LD50 (Apis mellifera; oral, unspecified) was > 111 µg/piece and the NOEC (Bibionidae) was 75.9 mg/L. For the same molecule, the LC50 (Colinus virginianus; acute, oral, diet, mortality) was > 912 mg/kg-day, the LD50 (Colinus virginianus; acute, oral, mortality) was > 2000 mg/kg-day and the NOEC (Colinus virginianus; reproduction developmental) was 74.6 mg/kg-day. It also gave an LC50 (Cyprinus carpio) of 0.29 µg/mL (≈ 0.761 µM), an NOEC (Daphnia magna) of 0.5 mg/L and an NOEC (Folsomia candida) of 2.99 mg/kg. The NOAEL (Oryctolagus sp.; developmental, development) was 25 mg/kg-day, the NOEC (Pimephales promelas) was 0.0359 mg/L and the LD50 (Rattus norvegicus; acute, oral, mortality) was > 2000 mg/kg-day. For the same molecule, the NOAEL (Rattus norvegicus; chronic, duration: 2 years, organ weight) was 2.1 mg/kg-day, the NOAEL (Rattus norvegicus; [1]) was 25 mg/kg-day and the NOAEL (Rattus norvegicus; subchronic, duration: 90 days, oral, organ weight) was 6 mg/kg-day. For the same molecule, the LC50 (Tagia sp.; acute, mortality) was > 1000 mg/kg and the NOEC (Tagia sp.; chronic/long-term, duration: 56 days) was 21.3 mg/kg.

In the case of `O=C(O)c1cn[nH]c1C(F)F` [1H-3-Difluoromethylpyrazole-4-carboxylic acid], the NOAEL (Oryctolagus sp.; [1]) is reported as 300 mg/kg-day.
